1 compound from US8551991B2, “1,2,3,4-tetrahydroquinoxaline derivative having glucocorticoid receptor binding activity” (Santen Pharmaceutical Co., Ltd., priority 2006, dated 2013) can be followed below.

This experiment addresses T1, Recombinant human GR (Homo sapiens, UniProt P04150).
T1 construct: purchased Invitrogen P2816
T1 sequence (P04150 1-777): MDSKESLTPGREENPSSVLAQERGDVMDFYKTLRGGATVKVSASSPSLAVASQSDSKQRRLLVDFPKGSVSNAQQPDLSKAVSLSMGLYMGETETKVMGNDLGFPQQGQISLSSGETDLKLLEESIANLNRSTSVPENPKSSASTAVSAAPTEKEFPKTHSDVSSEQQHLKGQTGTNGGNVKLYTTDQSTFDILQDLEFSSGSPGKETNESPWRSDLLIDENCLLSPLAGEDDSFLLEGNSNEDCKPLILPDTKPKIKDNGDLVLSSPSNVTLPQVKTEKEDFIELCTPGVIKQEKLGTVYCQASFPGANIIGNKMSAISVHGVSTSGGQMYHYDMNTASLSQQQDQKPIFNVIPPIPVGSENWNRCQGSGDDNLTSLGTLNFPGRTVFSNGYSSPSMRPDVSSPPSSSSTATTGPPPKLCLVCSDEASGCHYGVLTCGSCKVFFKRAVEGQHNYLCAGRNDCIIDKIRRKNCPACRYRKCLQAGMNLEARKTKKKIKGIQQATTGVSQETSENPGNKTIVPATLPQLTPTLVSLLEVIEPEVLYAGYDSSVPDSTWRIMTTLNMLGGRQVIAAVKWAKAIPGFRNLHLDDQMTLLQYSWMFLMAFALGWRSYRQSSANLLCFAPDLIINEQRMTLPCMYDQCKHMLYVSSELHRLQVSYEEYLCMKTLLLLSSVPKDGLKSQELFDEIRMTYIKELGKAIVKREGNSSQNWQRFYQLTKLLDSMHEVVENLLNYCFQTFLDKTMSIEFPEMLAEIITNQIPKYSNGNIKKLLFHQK
As to the kind of experiment: GR competitor assay by fluorescence polarization (binding activity to glucocorticoid receptor). The note with it: 20 μM test compound solution, 25 μL per well plus 12.5 μL each of 4×GS1 and 4×GR solution; Fluormone GS1 ligand; positive control 2 mM dexamethasone; read-out: GR Binding ratio (%). On the procedure:
1. Evaluation Test for Binding Activity to Glucocorticoid Receptor (Hereinafter Referred to as “GR”)
In order to evaluate a binding activity to GR, a receptor competitor assay was carried out by a fluorescence polarization method. In the assay, a GR competitor assay kit (manufactured by Invitrogen, cat No. P2816) was used, and a procedure was carried out according to the protocol attached to the kit. Hereinafter, the specific method will be described.
GR screening buffer: A buffer containing 10 mM potassium phosphate (pH 7.4), 20 mM sodium molybdate (Na2MoO4), 0.1 mM ethylene diamine tetraacetic acid (EDTA), 5 mM dithiothreitol (DTT), 0.1 mM stabilizing peptide and 2% dimethylsulfoxide was prepared.
4×GS1 solution: Fluormone™ GS1, which is a fluorescent glucocorticoid ligand, was diluted with GR screening buffer, whereby a 4 nM solution was prepared.
4×GR solution: Recombinant human GR was diluted with GR screening buffer, whereby a 16 nM solution was prepared.
After a test compound was dissolved in dimethylsulfoxide, the resulting solution was diluted with GR screening buffer, whereby a 20 μM test compound solution was prepared.
1) The test compound solution was added in an amount of 25 μL into each well of a 96-well plate, and then, 4×GS1 solution and 4×GR solution were added in an amount of 12.5 μL into each well, respectively.
2) The plate was incubated in a dark place at room temperature for 2 to 4 hours.
3) By using a multimode plate reader, Analyst™ HT (manufactured by LJL Biosystems), fluorescence polarization of each well was measured. As the blank, a well containing GR screening buffer in place of the test compound and 4×GS1 solution was used.
4) The same procedure as that in the above 1) to 3) was carried out except that GR screening buffer was used in place of the test compound solution, and the obtained result was taken as the negative control.
5) The same procedure as that in the above 1) to 3) was carried out except that 2 mM dexamethasone was used in place of the test compound solution, and the obtained result was taken as the positive control.
A GR binding ratio (%) was calculated from the following equation.
GR binding ratio (%)=100×[1-(fluorescence polarization of test compound solution-fluorescence polarization of positive control solution)/(fluorescence polarization of negative control solution—fluorescence polarization of positive control solution)]
Background: Polarisation of emitted light reports the rotation of a fluorescent probe.

Take `COc1ccc([N+](=O)[O-])cc1OCc1c(-c2ccc(OC(=O)c3ccccc3C)cc2OC)ccc2c1NC(=O)C(C)(C)N2` [Compound 22, 7-[2-Methoxy-4-(2-methylbenzoyloxy)phenyl]-8-(2-methoxy-5-nitrophenoxymethyl)-3,3-dimethyl-3,4-dihydro-1H-quinoxalin-2-one]: the inhibition at 10 µM came to 100%.
